# Results taken from ChEMBL document CHEMBL1153520, “A multivalent approach to the design and discovery of orally efficacious 5-HT4 receptor agonists” (J Med Chem, 2009).
# What was measured:
# [1] = target: T1, 5-hydroxytryptamine receptor 4 (Homo sapiens, UniProt Q13639); assay: Displacement of [H]GR-113808 from human 5HT4C receptor expressed in HEK293 cells by liquid scintillation counting; assay type: cell-based
# Homo sapiens = species on record: Homo sapiens; assay: Selectivity ratio of Ki for human 5HT3A receptor to Ki for human 5HT4C receptor
# [2] = target: T1, 5-hydroxytryptamine receptor 4; assay: Agonist activity at human 5HT4C receptor expressed in HEK293 cells assessed as accumulation of cAMP by flash plate adenylyl cyclase activation assay; assay type: functional, cell-based
# [3] = target: T1, 5-hydroxytryptamine receptor 4; assay: Intrinsic activity at human 5HT4C receptor expressed in HEK293 cells assessed as accumulation of cAMP by flash plate adenylyl cyclase activation assay relative to serotonin; assay type: functional, cell-based
# hERG (KCNH2) = hERG (KCNH2) (Homo sapiens, UniProt Q12809); assay: Inhibition of human ERG potassium channel expressed in CHO-K1 cells at 3 uM by whole cell voltage clamp assay; assay type: cell-based; conditions: CHO-K1 cells expressing human ERG potassium channel
# Sequence of hERG (KCNH2) (Q12809 whole entry): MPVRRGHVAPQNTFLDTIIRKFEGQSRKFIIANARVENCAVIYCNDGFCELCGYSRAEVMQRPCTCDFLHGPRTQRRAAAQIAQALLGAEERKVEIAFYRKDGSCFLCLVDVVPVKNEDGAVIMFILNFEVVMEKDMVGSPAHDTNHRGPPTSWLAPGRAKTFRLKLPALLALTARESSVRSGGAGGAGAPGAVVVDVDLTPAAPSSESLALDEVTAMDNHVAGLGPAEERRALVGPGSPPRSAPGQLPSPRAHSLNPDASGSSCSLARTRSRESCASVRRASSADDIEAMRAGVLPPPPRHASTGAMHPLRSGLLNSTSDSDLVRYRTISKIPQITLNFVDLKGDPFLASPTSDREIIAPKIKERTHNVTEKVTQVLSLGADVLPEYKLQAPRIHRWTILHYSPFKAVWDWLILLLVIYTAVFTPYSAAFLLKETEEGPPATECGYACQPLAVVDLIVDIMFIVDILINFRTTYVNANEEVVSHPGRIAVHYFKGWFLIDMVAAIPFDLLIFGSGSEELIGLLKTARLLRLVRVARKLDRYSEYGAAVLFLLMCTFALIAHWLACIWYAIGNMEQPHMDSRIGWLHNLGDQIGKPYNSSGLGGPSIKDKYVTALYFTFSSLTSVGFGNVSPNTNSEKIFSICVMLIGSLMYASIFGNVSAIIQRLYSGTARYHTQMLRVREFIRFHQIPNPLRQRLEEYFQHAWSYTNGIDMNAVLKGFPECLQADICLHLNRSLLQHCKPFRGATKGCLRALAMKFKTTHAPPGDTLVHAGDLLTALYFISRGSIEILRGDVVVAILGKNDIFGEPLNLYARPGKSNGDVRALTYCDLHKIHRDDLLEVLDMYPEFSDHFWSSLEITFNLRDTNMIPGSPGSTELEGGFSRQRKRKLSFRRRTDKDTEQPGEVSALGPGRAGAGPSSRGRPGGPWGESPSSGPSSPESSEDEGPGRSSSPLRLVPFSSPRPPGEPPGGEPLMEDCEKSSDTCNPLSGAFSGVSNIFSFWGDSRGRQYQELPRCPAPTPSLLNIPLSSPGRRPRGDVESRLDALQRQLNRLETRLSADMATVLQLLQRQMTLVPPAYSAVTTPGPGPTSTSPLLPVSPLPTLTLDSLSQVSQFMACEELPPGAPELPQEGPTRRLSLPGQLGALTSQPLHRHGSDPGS
# [4] = Permeability across human Caco-2 cells assessed as permeability coefficient; assay type: ADME, cell-based; conditions: read-out: permeability
# [5] = AUC (0 to t) in Sprague-Dawley rat at 5 mg/kg, po; assay type: ADME, organism-based; design: dose 5 mg/kg, route oral; conditions: plasma
# [6] = Cmax in Sprague-Dawley rat at 5 mg/kg, po; assay type: ADME, organism-based; design: dose 5 mg/kg, route oral; conditions: in vivo
# [7] = Half life in Sprague-Dawley rat at 5 mg/kg, po; assay type: ADME, organism-based; design: dose 5 mg/kg, route oral; conditions: in vivo
# [8] = Oral bioavailability in Sprague-Dawley rat at 5 mg/kg, po; assay type: ADME, organism-based; conditions: in vivo
# Rattus norvegicus = assay: Induction of 5HT4 receptor-mediated relaxation of esophagus in iv dosed anesthetized Sprague-Dawley rat by digital sonomicrometry; assay type: functional
# [9] = Oral bioavailability in human; assay type: ADME, organism-based; conditions: in vivo
# in vitro = conditions: rat, liver microsomes
# T1 sequence (Q13639 whole entry): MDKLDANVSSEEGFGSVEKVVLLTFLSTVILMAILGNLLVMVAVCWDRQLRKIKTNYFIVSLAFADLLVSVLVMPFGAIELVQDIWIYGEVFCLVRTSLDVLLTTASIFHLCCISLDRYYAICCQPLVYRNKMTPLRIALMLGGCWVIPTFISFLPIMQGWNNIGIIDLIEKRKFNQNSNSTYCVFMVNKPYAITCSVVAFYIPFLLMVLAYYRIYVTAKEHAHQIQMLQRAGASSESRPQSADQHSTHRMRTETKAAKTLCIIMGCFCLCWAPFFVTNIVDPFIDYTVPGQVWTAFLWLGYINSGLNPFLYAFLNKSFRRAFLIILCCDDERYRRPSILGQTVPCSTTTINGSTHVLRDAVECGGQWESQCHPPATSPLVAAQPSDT
Structure (SMILES),Ki [1],Ratio Ki (Homo sapiens),EC50 [2],Intrinsic activity [3],inhibition at 3 µM (hERG (KCNH2)),Papp [4],AUC(0-t) [5],Cmax [6],half-life [7],bioavailability [8],ED50 (Rattus norvegicus),bioavailability [9],half-life (in vitro)
CC(C)n1c(=O)c(C(=O)N[C@H]2C[C@H]3CC[C@@H](C2)N3CCCCCCCN(C)CCCN(C)S(C)(=O)=O)cc2ccccc21,5.01 nM,6500,0.631 nM,96%,12%,3 ×10⁻⁶ cm/s,,,,,,,
CCOC(=O)N1CCN(CCCCCCCN2[C@@H]3CC[C@H]2C[C@@H](NC(=O)c2cc4ccccc4n(C(C)C)c2=O)C3)CC1,7.94 nM,810,3.16 nM,> 100%,87%,14 ×10⁻⁶ cm/s,,,,,,,
CCCCCNC(=N)N/N=C/c1c[nH]c2ccc(OC)cc12 [TEGASEROD],,,,,,11 ×10⁻⁶ cm/s,21 ng·h/mL,6 ng/mL,1.8 h,5%,0.0106 mg/kg,10%,> 1.5 h
CC(C)n1c(=O)c(C(=O)N[C@H]2C[C@H]3CC[C@@H](C2)N3CCCN2CCC[C@@H]2C(N)=O)cc2ccccc21,50.1 nM,1500,3.98 nM,> 100%,12%,2 ×10⁻⁶ cm/s,,,,,,,
COc1cc(N)c(Cl)cc1C(=O)NC1CCN(CCCOc2ccc(F)cc2)CC1OC (stereo not drawn) [CISAPRIDE],,,,,,,,,,,0.142 mg/kg,,
CC(C)n1c(=O)c(C(=O)N[C@H]2C[C@H]3CC[C@@H](C2)N3CCCN2CCOCC2)cc2ccccc21,39.8 nM,750,2.51 nM,> 100%,80%,22 ×10⁻⁶ cm/s,,,,,,,
CC(C)n1c(=O)c(C(=O)N[C@H]2C[C@H]3CC[C@@H](C2)N3C[C@H](O)CN2CCN(S(C)(=O)=O)CC2)cc2ccccc21,50.1 nM,1300,1.26 nM,> 100%,6%,20 ×10⁻⁶ cm/s,,,,,,,
CC(C)n1c(=O)c(C(=O)N[C@H]2C[C@H]3CC[C@@H](C2)N3CCCCCCCN2CCN(c3ccccc3)CC2)cc2ccccc21,3.98 nM,5300,7.94 nM,> 100%,97%,20 ×10⁻⁶ cm/s,,,,,,,
CC(C)n1c(=O)c(C(=O)N[C@H]2C[C@H]3CC[C@@H](C2)N3CCCCCCCN2CCN(S(C)(=O)=O)CC2)cc2ccccc21,10 nM,2600,2.51 nM,> 100%,46%,22 ×10⁻⁶ cm/s,83 ng·h/mL,10 ng/mL,20.3 h,20%,,,> 1.5 h
CCOC(=O)N1CCN(CCCN2[C@@H]3CC[C@H]2C[C@@H](NC(=O)c2cc4ccccc4n(C(C)C)c2=O)C3)CC1,39.8 nM,1300,2.51 nM,> 100%,75%,31 ×10⁻⁶ cm/s,,,,,,,
CC(C)n1c(=O)c(C(=O)N[C@H]2C[C@H]3CC[C@@H](C2)N3CCCCCCCN2CCCCC2)cc2ccccc21,2.51 nM,10000,0.794 nM,90%,9%,23 ×10⁻⁶ cm/s,,,,,,,
CC(C)n1c(=O)c(C(=O)N[C@H]2C[C@H]3CC[C@@H](C2)N3CCCN2CCCCC2)cc2ccccc21,6.31 nM,9200,2 nM,> 100%,39%,24 ×10⁻⁶ cm/s,,,,,,,
CC(C)n1c(=O)c(C(=O)N[C@H]2C[C@H]3CC[C@@H](C2)N3CCCN2CCC(CNS(C)(=O)=O)CC2)cc2ccccc21,5.01 nM,11000,1 nM,> 100%,14%,3 ×10⁻⁶ cm/s,,,,,,,
CC(C)n1c(=O)c(C(=O)N[C@H]2C[C@H]3CC[C@@H](C2)N3CCCN(C)CCCN(C)S(C)(=O)=O)cc2ccccc21,200 nM,210,10 nM,> 100%,6%,4 ×10⁻⁶ cm/s,,,,,,,
CC(C)n1c(=O)c(C(=O)N[C@H]2C[C@H]3CC[C@@H](C2)N3CCCN2CCN(c3ccccc3)CC2)cc2ccccc21,7.94 nM,1000,0.794 nM,> 100%,90%,22 ×10⁻⁶ cm/s,,,,,,,
CC(C)n1c(=O)c(C(=O)N[C@H]2C[C@H]3CC[C@@H](C2)N3CCCCCCCN2CCOCC2)cc2ccccc21,2 nM,1600,2.51 nM,> 100%,34%,28 ×10⁻⁶ cm/s,,,,,,,
CC(C)n1c(=O)c(C(=O)N[C@H]2C[C@H]3CC[C@@H](C2)N3CCCN2CCN(S(C)(=O)=O)CC2)cc2ccccc21,39.8 nM,2300,1.58 nM,> 100%,38%,20 ×10⁻⁶ cm/s,183 ng·h/mL,34 ng/mL,7.9 h,38%,,,0.683 h
CC(C)n1c(=O)c(C(=O)N[C@H]2C[C@H]3CC[C@@H](C2)N3CCCCCCCN2CCC(CNS(C)(=O)=O)CC2)cc2ccccc21,2.51 nM,3100,0.631 nM,98%,5%,2 ×10⁻⁶ cm/s,,,,,,,
CC(C)n1c(=O)c(C(=O)N[C@H]2C[C@H]3CC[C@@H](C2)N3CC(O)CN2CCN(S(C)(=O)=O)CC2)cc2ccccc21 (mixture of isomers),20 nM,2400,0.794 nM,> 100%,10%,19 ×10⁻⁶ cm/s,,,,,,,
CC(C)n1c(=O)c(C(=O)N[C@H]2C[C@H]3CC[C@@H](C2)N3CCN2CCCCC2)cc2ccccc21,79.4 nM,720,10 nM,> 100%,,,,,,,,,
CC(C)n1c(=O)c(C(=O)N[C@H]2C[C@H]3CC[C@@H](C2)N3CCCCCCCN2CCC[C@@H]2C(N)=O)cc2ccccc21,2 nM,20000,0.398 nM,> 100%,7%,9 ×10⁻⁶ cm/s,,,,,,,
CC(C)n1c(=O)c(C(=O)N[C@H]2C[C@H]3CC[C@@H](C2)N3CCN2C(=O)c3ccccc3C2=O)cc2ccccc21,1000 nM,55,79.4 nM,> 100%,,,,,,,,,
COc1cc(N)c(Cl)cc1C(=O)NC1CCNCC1,1580 nM,0.095,398 nM,> 100%,,,,,,,,,
CC(C)n1nc(C(=O)NC2CCNCC2)c2ccccc21,398 nM,0.52,200 nM,50%,,,,,,,,,
CC(C)n1c(=O)c(C(=O)NC2CCNCC2)cc2ccccc21,3160 nM,0.14,158 nM,> 100%,,,,,,,,,
CC(C)n1c(=O)n(C(=O)NC2CCNCC2)c2ccccc21,1580 nM,0.019,316 nM,> 100%,,,,,,,,,
CC(C)n1c(=O)c(C(=O)N[C@H]2C[C@H]3CC[C@@H](C2)N3CCCCCCCCS(=O)(=O)O)cc2ccccc21,63.1 nM,230,20 nM,> 100%,,,,,,,,,
CCN1CCC(NC(=O)c2cc(Cl)c(N)cc2OC)CC1,1000 nM,4.2,79.4 nM,> 100%,,,,,,,,,
COc1cc(N)c(Cl)cc1C(=O)NC1CCN(CCCCCN2C(=O)c3ccccc3C2=O)CC1,20 nM,120,5.01 nM,> 100%,,,,,,,,,
